Reference: ChEMBL document CHEMBL5543119, “Discovery of Novel 11-Membered Templates as Squalene Synthase Inhibitors” (J Med Chem, 2024)

test system: Hamster; assay: Lipid lowering effect in hamster assessed as reduction in total cholesterol level in serum at 100 mg/kg, po bid administered at 9 a.m and 4 p.m for 14 days relative to control; type: functional, Cricetinae; set-up: scale not given: the % may be the effect or the level left; conditions: time 14 day

| Structure (SMILES) | Activity |
| --- | --- |
| COc1cccc([C@H]2O[C@H](CC(=O)N3CCC(CC(=O)O)CC3)C(=O)N(CC(C)(C)CO)c3ccc(Cl)cc32)c1OC | 2% |

target: T1, Squalene synthase (Rattus norvegicus, UniProt Q02769); assay: Inhibition of squalene synthase in rat liver microsomes using [3H] farnesyl pyrophosphate as substrate preincubated for 10 mins followed by substrate addition and measured after 30 mins by liquid scintillation counter analysis; set-up: species or system Microsome; conditions: not given
T1 sequence (Q02769 whole entry): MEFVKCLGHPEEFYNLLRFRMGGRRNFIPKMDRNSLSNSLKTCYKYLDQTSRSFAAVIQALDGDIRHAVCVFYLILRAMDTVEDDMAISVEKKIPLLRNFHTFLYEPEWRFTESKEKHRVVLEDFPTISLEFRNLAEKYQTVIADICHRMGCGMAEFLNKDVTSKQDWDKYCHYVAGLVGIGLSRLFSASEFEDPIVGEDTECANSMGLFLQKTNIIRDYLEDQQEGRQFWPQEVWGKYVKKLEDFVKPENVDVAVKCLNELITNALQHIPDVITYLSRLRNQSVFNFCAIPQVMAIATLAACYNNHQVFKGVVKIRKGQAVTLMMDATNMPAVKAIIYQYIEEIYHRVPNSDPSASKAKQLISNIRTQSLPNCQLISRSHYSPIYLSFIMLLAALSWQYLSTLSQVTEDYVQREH

| IC50 | Structure (SMILES) |
| --- | --- |
| ≥ 260 nM | COc1ccccc1C1OCCCN(C(=O)C(=O)O)CC(=O)N(CC(C)(C)C)c2ccc(Cl)cc21 (centres undefined) |
| 450 nM | COc1ccccc1C1OCCN([C@H]2CC[C@@H](C(=O)O)CC2)C(=O)CC(=O)N(CC(C)(C)C)c2ccc(Cl)cc21 (some centres undefined) |
| 23 nM | COc1ccccc1C1OCCN([C@H]2CC[C@H](C(=O)O)CC2)C(=O)CC(=O)N(CC(C)(C)C)c2ccc(Cl)cc21 (some centres undefined) |
| 30 nM | CCOC(=O)C1CCC(N2CCOC(c3ccccc3OC)c3cc(Cl)ccc3N(CC(C)(C)C)C(=O)CC2=O)CC1 (centres undefined) |
| > 600 nM | CCOC(=O)C1CCN(C(=O)CN2CC(=O)N(CC(C)(C)C)c3ccc(Cl)cc3C(c3ccccc3OC)OCCC2=O)CC1 (centres undefined) |
| > 600 nM | COc1ccccc1C1OCCN([C@H]2CCC[C@H](C(=O)O)C2)C(=O)CC(=O)N(CC(C)(C)C)c2ccc(Cl)cc21 (some centres undefined) |
| > 600 nM | CCOC(=O)C1CCCN(C(=O)N2CCCOC(c3ccccc3OC)c3cc(Cl)ccc3N(CC(C)(C)C)C(=O)C2)C1 (centres undefined) |
| > 600 nM | COc1ccccc1C1OCCN(CC(=O)N2CCC(C(=O)O)CC2)C(=O)CC(=O)N(CC(C)(C)C)c2ccc(Cl)cc21 (centres undefined) |
| 16 nM | CCOC(=O)[C@H]1CC[C@H](N2CCOC(c3ccccc3OC)c3cc(Cl)ccc3N(CC(C)(C)C)C(=O)CC2=O)CC1 (some centres undefined) |
| 17 nM | CCOC(=O)[C@@H]1CCC[C@H](N2CCOC(c3ccccc3OC)c3cc(Cl)ccc3N(CC(C)(C)C)C(=O)CC2=O)C1 (some centres undefined) |
| 1400 nM | COc1ccccc1[C@@H]1OCCCN(C(=O)N2CCC(CC(=O)O)CC2)CC(=O)N(CC(C)(C)C)c2ccc(Cl)cc21 |
| 64 nM | CCOC(=O)C1CCCN(C(=O)CN2CCOC(c3ccccc3OC)c3cc(Cl)ccc3N(CC(C)(C)C)C(=O)CC2=O)C1 (centres undefined) |
| > 600 nM | COc1ccccc1C1OCCN(CC(=O)N2CCCC(C(=O)O)C2)C(=O)CC(=O)N(CC(C)(C)C)c2ccc(Cl)cc21 (centres undefined) |
| > 600 nM | COc1ccccc1C1OCCC(=O)N(CC(=O)O)CC(=O)N(CC(C)(C)C)c2ccc(Cl)cc21 (centres undefined) |
| 4.7 nM | COc1ccccc1C1OCCN([C@@H]2CCC[C@H](C(=O)O)C2)C(=O)CC(=O)N(CC(C)(C)C)c2ccc(Cl)cc21 (some centres undefined) |
| > 600 nM | CCOC(=O)C1CCCN(C(=O)CN2CC(=O)N(CC(C)(C)C)c3ccc(Cl)cc3C(c3ccccc3OC)OCCC2=O)C1 (centres undefined) |
| > 600 nM | COc1ccccc1C1OCCC(=O)N(CC(=O)N2CCCC(C(=O)O)C2)CC(=O)N(CC(C)(C)C)c2ccc(Cl)cc21 (centres undefined) |
| > 600 nM | COc1ccccc1C1OCCN(C(=O)C(=O)O)CCC(=O)N(CC(C)(C)C)c2ccc(Cl)cc21 (centres undefined) |
| > 600 nM | COc1ccccc1C1OCCCNCC(=O)N(CC(C)(C)C)c2ccc(Cl)cc21 (centres undefined) |
| 19 nM | CCOC(=O)[C@@H]1CCC[C@@H](N2CCOC(c3ccccc3OC)c3cc(Cl)ccc3N(CC(C)(C)C)C(=O)CC2=O)C1 (some centres undefined) |
| 12 nM | COc1ccccc1C1OCCCN(C(=O)N2CCC(C(=O)O)CC2)CC(=O)N(CC(C)(C)C)c2ccc(Cl)cc21 (centres undefined) |
| 4 nM | COc1ccccc1C1OCCN([C@@H]2CCC[C@@H](C(=O)O)C2)C(=O)CC(=O)N(CC(C)(C)C)c2ccc(Cl)cc21 (some centres undefined) |
| > 600 nM | COc1ccccc1C1OCCN(CC(=O)O)C(=O)CC(=O)N(CC(C)(C)C)c2ccc(Cl)cc21 (centres undefined) |
| 21 nM | COc1ccccc1C1OCCN(C2CCCN(C(=O)C(=O)O)C2)C(=O)CC(=O)N(CC(C)(C)C)c2ccc(Cl)cc21 (centres undefined) |
| > 600 nM | COc1ccccc1C1OCCN(C(=O)C(F)(F)F)CCC(=O)N(CC(C)(C)C)c2ccc(Cl)cc21 (centres undefined) |

| IC50 | Structure (SMILES) |
| --- | --- |
| > 600 nM | CCOC(=O)C(=O)N1CCCOC(c2ccccc2OC)c2cc(Cl)ccc2N(CC(C)(C)C)C(=O)C1 (centres undefined) |
| 25 nM | CCOC(=O)C(=O)N1CCC(N2CCOC(c3ccccc3OC)c3cc(Cl)ccc3N(CC(C)(C)C)C(=O)CC2=O)CC1 (centres undefined) |
| 170 nM | COc1ccccc1C1OCCCN(C(=O)N2CCCC(C(=O)O)C2)CC(=O)N(CC(C)(C)C)c2ccc(Cl)cc21 (centres undefined) |
| > 600 nM | COc1ccccc1C1OCCCN(S(=O)(=O)c2ccccc2[N+](=O)[O-])CC(=O)N(CC(C)(C)C)c2ccc(Cl)cc21 (centres undefined) |
| 47 nM | CCOC(=O)C1CCN(C(=O)N2CCCOC(c3ccccc3OC)c3cc(Cl)ccc3N(CC(C)(C)C)C(=O)C2)CC1 (centres undefined) |
| > 600 nM | COc1ccccc1C1OCC(=O)NCCC(=O)N(CC(C)(C)C)c2ccc(Cl)cc21 (centres undefined) |
| 18 nM | CCOC(=O)[C@H]1CCC[C@@H](N2CCOC(c3ccccc3OC)c3cc(Cl)ccc3N(CC(C)(C)C)C(=O)CC2=O)C1 (some centres undefined) |
| 390 nM | CCOC(=O)C1CCN(C(=O)CN2CCOC(c3ccccc3OC)c3cc(Cl)ccc3N(CC(C)(C)C)C(=O)CC2=O)CC1 (centres undefined) |
| 46 nM | COc1ccccc1C1OCCN(C2CCC(C(=O)O)CC2)C(=O)CC(=O)N(CC(C)(C)C)c2ccc(Cl)cc21 (centres undefined) |
| 26 nM | CCOC(=O)[C@H]1CC[C@@H](N2CCOC(c3ccccc3OC)c3cc(Cl)ccc3N(CC(C)(C)C)C(=O)CC2=O)CC1 (some centres undefined) |
| > 600 nM | COc1ccccc1C1OCCC(=O)N(CC(=O)N2CCC(C(=O)O)CC2)CC(=O)N(CC(C)(C)C)c2ccc(Cl)cc21 (centres undefined) |
| 14 nM | CCOC(=O)C(=O)N1CCCC(N2CCOC(c3ccccc3OC)c3cc(Cl)ccc3N(CC(C)(C)C)C(=O)CC2=O)C1 (centres undefined) |
| 54 nM | CCOC(=O)[C@H]1CCC[C@H](N2CCOC(c3ccccc3OC)c3cc(Cl)ccc3N(CC(C)(C)C)C(=O)CC2=O)C1 (some centres undefined) |
| > 600 nM | COc1ccccc1C1OCC(=O)N(CC(=O)O)CCC(=O)N(CC(C)(C)C)c2ccc(Cl)cc21 (centres undefined) |
| 20 nM | CCOC(=O)CC1CCN(C(=O)N2CCCOC(c3ccccc3OC)c3cc(Cl)ccc3N(CC(C)(C)C)C(=O)C2)CC1 (centres undefined) |
| 4.4 nM | COc1ccccc1[C@H]1OCCCN(C(=O)N2CCC(CC(=O)O)CC2)CC(=O)N(CC(C)(C)C)c2ccc(Cl)cc21 |
| 0.6 nM | COc1ccccc1[C@@H](O)c1cc(Cl)ccc1N(CC(C)(C)C)C(=O)CCC(=O)N1CCC[C@H](C(=O)O)C1 |
| > 600 nM | COc1ccccc1C1OCCN(C2CCN(C(=O)C(=O)O)CC2)C(=O)CC(=O)N(CC(C)(C)C)c2ccc(Cl)cc21 (centres undefined) |
| 140 nM | CCOC(=O)CN1CCOC(c2ccccc2OC)c2cc(Cl)ccc2N(CC(C)(C)C)C(=O)CC1=O (centres undefined) |
| > 600 nM | CCOC(=O)CN1CC(=O)N(CC(C)(C)C)c2ccc(Cl)cc2C(c2ccccc2OC)OCCC1=O (centres undefined) |
| > 600 nM | CCOC(=O)CN1CCC(=O)N(CC(C)(C)C)c2ccc(Cl)cc2C(c2ccccc2OC)OCC1=O (centres undefined) |
| > 600 nM | COc1ccccc1C1OCCN([C@H]2CCC[C@@H](C(=O)O)C2)C(=O)CC(=O)N(CC(C)(C)C)c2ccc(Cl)cc21 (some centres undefined) |
| 7 nM | COc1ccccc1C1OCCCN(C(=O)N2CCC(CC(=O)O)CC2)CC(=O)N(CC(C)(C)C)c2ccc(Cl)cc21 (centres undefined) |
| > 600 nM | CCOC(=O)C(=O)N1CCOC(c2ccccc2OC)c2cc(Cl)ccc2N(CC(C)(C)C)C(=O)CC1 (centres undefined) |

| Structure (SMILES) | IC50 |
| --- | --- |
| COc1ccccc1C1OCCNCCC(=O)N(CC(C)(C)C)c2ccc(Cl)cc21 (centres undefined) | > 600 nM |

test system: marmosets; assay: Lipid lowering effect in chow diet fed marmosets assessed as reduction in total cholesterol level in serum at 10 mg/kg, po qd administered once a day to 9 to 10 a.m for 7 days relative to control; type: functional, Callitrichinae sp.; set-up: scale not given: the % may be the effect or the level left; conditions: time 7 day

| Structure (SMILES) | Activity |
| --- | --- |
| COc1cccc([C@H]2O[C@H](CC(=O)N3CCC(CC(=O)O)CC3)C(=O)N(CC(C)(C)CO)c3ccc(Cl)cc32)c1OC | 24% |

test system: marmosets; assay: Lipid lowering effect in chow diet fed marmosets assessed as reduction in non-HDL level in serum at 10 mg/kg, po qd administered once a day to 9 to 10 a.m for 7 days relative to control; type: functional, Callitrichinae sp.; set-up: scale not given: the % may be the effect or the level left; conditions: time 7 day

| Structure (SMILES) | Activity |
| --- | --- |
| COc1cccc([C@H]2O[C@H](CC(=O)N3CCC(CC(=O)O)CC3)C(=O)N(CC(C)(C)CO)c3ccc(Cl)cc32)c1OC | 34% |

test system: not listed separately; assay: Effect on triglyceride level in hamster assessed as increase in triglyceride level in serum at 100 mg/kg, po bid administered at 9 a.m and 4 p.m for 14 days relative to control; type: functional, Cricetinae; conditions: time 14 day

| Structure (SMILES) | Activity |
| --- | --- |
| COc1cccc([C@H]2O[C@H](CC(=O)N3CCC(CC(=O)O)CC3)C(=O)N(CC(C)(C)CO)c3ccc(Cl)cc32)c1OC | 8% |

test system: marmosets; assay: Lipid lowering effect in chow diet fed marmosets assessed as reduction in HDL level in serum at 10 mg/kg, po qd administered once a day to 9 to 10 a.m for 7 days relative to control; type: functional, Callitrichinae sp.; set-up: scale not given: the % may be the effect or the level left; conditions: time 7 day

| Structure (SMILES) | Activity |
| --- | --- |
| COc1cccc([C@H]2O[C@H](CC(=O)N3CCC(CC(=O)O)CC3)C(=O)N(CC(C)(C)CO)c3ccc(Cl)cc32)c1OC | 3% |

test system: marmosets; assay: Lipid lowering effect in chow diet fed marmosets assessed as reduction in triglyceride level in serum at 10 mg/kg, po qd administered once a day to 9 to 10 a.m for 7 days relative to control; type: functional, Callitrichinae sp.; set-up: scale not given: the % may be the effect or the level left; conditions: time 7 day

| Structure (SMILES) | Activity |
| --- | --- |
| COc1cccc([C@H]2O[C@H](CC(=O)N3CCC(CC(=O)O)CC3)C(=O)N(CC(C)(C)CO)c3ccc(Cl)cc32)c1OC | 38% |

test system: Hepatocyte; assay: Inhibition of cholesterol biosynthesis in rat hepatocytes preincubated for 1 hr followed by [14C]mevalonolactone addition and measured after 1 hr by liquid scintillation counter analysis; type: functional, cell-based; conditions: not given

| Structure (SMILES) | IC50 |
| --- | --- |
| COc1ccccc1[C@@H]1OCCCN(C(=O)N2CCC(CC(=O)O)CC2)CC(=O)N(CC(C)(C)C)c2ccc(Cl)cc21 | > 3000 nM |
| COc1ccccc1[C@H]1OCCCN(C(=O)N2CCC(CC(=O)O)CC2)CC(=O)N(CC(C)(C)C)c2ccc(Cl)cc21 | 120 nM |
| COc1ccccc1[C@@H](O)c1cc(Cl)ccc1N(CC(C)(C)C)C(=O)CCC(=O)N1CCC[C@H](C(=O)O)C1 | 120 nM |
